Consider nine molecules from patent publication US20110104103A1, “Method of conjugating therapeutic compounds to cell targeting devices via metal complexes” (KREATECH BIOTECHNOLOGY B.V., priority 2005, published 2011).

“Also recorded” adds a separate entry of the source.

The subject of series [1] is activated hepatic stellate cells (HSC). The series can be described thus: Immunohistochemical staining of fibrosis markers in HSC after 24 h incubation. In kind it is cell-based. As to conditions: conjugates 1 mg/ml (100 μM PTX), non-targeted PTX 1 mM. How it is done: The pharmacological effects of the conjugates were tested on different cultured cell types, e.g. activated hepatic stellate cells (HSC), kidney tubular cells (HK-2 cells) or human umbilical cord endothelial cells (HUVEC). Typically, cells were incubated for 24 h at 37° C. with the conjugates. Subsequently, the cells were subjected to analyses related to pharmacological activity of the coupled drug (gene expression analysis, immunohistochemcial evaluation of effect markers), or assays related to potential cytotoxicity of the complexes (cell viability assays, apoptosis assays).
FIG. 5. […] Cells were stained for collagen type I or α-smooth muscle actin and counterstained with hematoxillin. […] Magnification 10×. One of the hallmarks of liver fibrosis is the induced expression and production of a-smooth muscle actin (aSMA) and collagen type 1 by activated HSC. These proteins were therefore selected as read-out parameters of the antifibrotic effects of the targeted PTX.

Series [2] relates to IL8 gene expression in HUVEC treated with TNF. The experiment in a line: IL8 gene expression in TNF-treated HUVEC. It is filed as cell-based, human. As to conditions: 10 μM.
For series [3] the following is noted: 5 mg/kg of free SB202190, 4 h after administration; cited from earlier work.
Series [4] relates to UUO rats. The experiment in a line: Unilateral ureteral obstruction (UUO) model of renal fibrosis. In kind it is in vivo. As to conditions: day 3. How it is done:
Animals were divided into 4 groups: normal rats, fibrotic control animals (vehicle, 5% glucose), TKI-LZM (25 mg/kg equiv. to 630 μg/kg TKI) and free, unconjugated TKI (630 μg/kg). TKI was dissolved in 20% hydroxylpropyl-β-cyclodextrin in water with 5% DMSO, whereas TKI-LZM was dissolved in 5% glucose. To allow unhindered uptake of the products in the kidneys, rats were injected intravenously with either of these compounds 2 h before the uretheral obstruction. Left kidneys and ureter were exposed via a flank-incision under isoflurane anesthesia after which the ureter was ligated at three sites with 4-0 silk near the hilum. After 3 days, animals were sacrificed under anesthesia and kidneys were gently flushed and harvested. Kidney cortex pieces were snap-frozen to isolate RNA as described above. Kidney pieces were fixed in 4% formalin solution in PBS to make paraffin-embedded sections for anti-α-SMA and ED-1 immunohistochemical staining and morphometric analysis.

Series [5] has as its system hepatic fibrosis in BDL rats. The experiment in a line: Antifibrotic effect of losartan-cisULS-M6PHSA in BDL model of liver fibrosis. As to conditions: four daily doses. In kind it is in vivo.
Description: Ten minutes after the last dose, animals were sacrificed and blood and liver samples were obtained. […] The extraction was performed by adding 3 ml of methyl butyl ether to 200 μl of liver homogenate and vortexing for 5 min. Layers were separated by centrifugation at 900×g for 5 min and the aqueous layer was frozen in liquid nitrogen. The upper organic layer was transferred to another borosilicate glass tube and evaporated completely at 60° C. The extraction procedure was repeated twice and the total residue was reconstituted in 200 μl of mobile phase. Chromatography was carried out using a C18 (C18, 5 μm, 4.6×150 mm) reversed-phase column (Surefire, Waters Inc., Milford, Mass., USA) at 40° C. with an isocratic mobile phase consisting of acetonitrile-water-trifluoroacetic acid (30:70:0.1, v/v/v; pH 2.0).
Animal experiments were performed as described above.
The nature of series [6]: Organ distribution and liver losartan levels in BDL rats. In kind it is in vivo. Here is the method:
The extraction was performed by adding 3 ml of methyl butyl ether to 200 μl of liver homogenate and vortexing for 5 min. Layers were separated by centrifugation at 900×g for 5 min and the aqueous layer was frozen in liquid nitrogen. The upper organic layer was transferred to another borosilicate glass tube and evaporated completely at 60° C. The extraction procedure was repeated twice and the total residue was reconstituted in 200 μl of mobile phase. Chromatography was carried out using a C18 (C18, 5 μm, 4.6×150 mm) reversed-phase column (Surefire, Waters Inc., Milford, Mass., USA) at 40° C. with an isocratic mobile phase consisting of acetonitrile-water-trifluoroacetic acid (30:70:0.1, v/v/v; pH 2.0).

The target in series [7] is T1, αvβ3-integrin expressed on the surface of HUVEC (Homo sapiens, UniProt P05106+P06756).
T1 construct: αvβ3-integrin expressed on the surface of HUVEC; endogenous in cells; host or cells: HUVEC (confluent monolayers)
T1 sequence (P06756 31-889 limits assumed): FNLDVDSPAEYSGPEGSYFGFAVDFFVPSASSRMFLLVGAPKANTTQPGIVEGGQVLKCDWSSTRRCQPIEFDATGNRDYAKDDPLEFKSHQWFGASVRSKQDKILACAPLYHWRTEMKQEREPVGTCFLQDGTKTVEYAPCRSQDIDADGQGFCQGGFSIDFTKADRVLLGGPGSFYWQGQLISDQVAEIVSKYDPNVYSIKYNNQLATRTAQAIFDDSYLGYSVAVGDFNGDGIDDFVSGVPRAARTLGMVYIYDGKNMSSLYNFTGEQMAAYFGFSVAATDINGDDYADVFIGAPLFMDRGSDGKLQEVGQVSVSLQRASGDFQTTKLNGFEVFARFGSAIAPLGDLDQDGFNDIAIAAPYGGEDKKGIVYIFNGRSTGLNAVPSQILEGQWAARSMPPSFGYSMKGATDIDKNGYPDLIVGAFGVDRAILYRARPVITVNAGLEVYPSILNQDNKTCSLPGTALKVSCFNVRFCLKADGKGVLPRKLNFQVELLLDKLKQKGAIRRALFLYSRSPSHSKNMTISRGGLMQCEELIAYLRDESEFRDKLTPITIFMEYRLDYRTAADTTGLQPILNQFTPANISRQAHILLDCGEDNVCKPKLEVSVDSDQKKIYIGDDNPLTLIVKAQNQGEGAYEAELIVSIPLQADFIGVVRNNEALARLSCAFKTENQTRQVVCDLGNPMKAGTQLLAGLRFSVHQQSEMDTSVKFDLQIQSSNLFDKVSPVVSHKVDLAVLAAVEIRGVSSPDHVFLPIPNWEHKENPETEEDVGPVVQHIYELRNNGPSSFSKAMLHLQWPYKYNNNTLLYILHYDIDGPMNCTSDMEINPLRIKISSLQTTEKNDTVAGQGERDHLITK
T1 sequence (P06756 891-1048 partner limits assumed): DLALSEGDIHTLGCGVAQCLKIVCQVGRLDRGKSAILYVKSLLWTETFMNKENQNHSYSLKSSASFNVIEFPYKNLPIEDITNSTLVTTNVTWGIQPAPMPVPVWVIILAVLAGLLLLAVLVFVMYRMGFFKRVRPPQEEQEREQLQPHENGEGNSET
T1 sequence (P05106 27-788): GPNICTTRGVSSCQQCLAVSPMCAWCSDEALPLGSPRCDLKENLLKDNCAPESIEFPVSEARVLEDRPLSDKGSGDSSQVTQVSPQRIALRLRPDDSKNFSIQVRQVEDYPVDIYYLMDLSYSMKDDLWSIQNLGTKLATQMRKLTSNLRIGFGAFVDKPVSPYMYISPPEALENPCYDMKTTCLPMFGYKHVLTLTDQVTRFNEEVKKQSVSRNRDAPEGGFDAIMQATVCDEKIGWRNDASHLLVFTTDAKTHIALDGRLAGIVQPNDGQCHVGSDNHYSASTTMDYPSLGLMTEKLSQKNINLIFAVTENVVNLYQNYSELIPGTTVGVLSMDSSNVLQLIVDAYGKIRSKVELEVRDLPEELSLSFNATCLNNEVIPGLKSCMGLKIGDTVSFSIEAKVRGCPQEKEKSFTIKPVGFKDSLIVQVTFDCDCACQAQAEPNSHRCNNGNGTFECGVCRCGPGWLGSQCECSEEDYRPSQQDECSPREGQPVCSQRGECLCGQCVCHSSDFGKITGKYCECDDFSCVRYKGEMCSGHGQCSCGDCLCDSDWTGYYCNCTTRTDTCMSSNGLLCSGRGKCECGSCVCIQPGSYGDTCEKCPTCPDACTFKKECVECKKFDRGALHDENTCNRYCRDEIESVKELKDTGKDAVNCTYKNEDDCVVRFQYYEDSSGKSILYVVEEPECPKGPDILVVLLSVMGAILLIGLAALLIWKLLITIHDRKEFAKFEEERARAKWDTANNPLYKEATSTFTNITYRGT
The experiment in a line: Competitive displacement of 125I-labeled echistatin. As to conditions: displacement of 125I-echistatin, read-out: IC50 (binding affinity). Here is the method: In a different experimental setup that allowed the calculation for binding constants, we explored the affinity of RGD-equipped PTK787-cisULS-albumins. ^125I-labeled echistatin was used as a radioligand for αvβ3-integrin expressed on the surface of HUVEC. Competitive binding studies were performed by coincubating using confluent monolayers of HUVEC with the radiolabeled ligand and non-radiolabeled complexes.

Series [8] is described as follows: Pharmacokinetic evaluation of kidney directed complexes in healthy rats. In kind it is in vivo, Wistar rats. How it is done:
Organ distribution studies with this type of cell targeting complexes were performed in healthy Wistar rats. All in vivo experiments were approved by the Local Committee for Care and Use of Laboratory Animals.
Rats were injected intravenously with a single dose of the SB202190-cisULS-lysozyme conjugate (16 mg/kg equivalent to 376 μg/kg of SB202190; dissolved in 5% glucose) via the penile vein. Animals were sacrificed at different time points between 1 and 72 h after administration. Blood samples were collected by heart puncture and kidneys were isolated after flushing the organs gently with saline. Serum and organs were snap-frozen into liquid nitrogen immediately. Urine samples were collected using metabolic cages and combined with the urine collected from urinary bladder after sacrificing the animals. Kidneys were weighed, homogenized (1:3 w/v in PBS, Turrax homogenization) and then stored at −80° C. Released drug amounts were estimated by HPLC analysis after extraction as described before. To estimate total drug (bound plus released), samples were treated with KSCN to release SB202190 from the ULS linker as described above and then subjected to HPLC analysis. Anti-LZM immunohistochemical staining was performed on cryostat kidney sections to detect the uptake of the conjugate in tubular cells.
Renal drug levels were assayed in KSCN-treated kidney homogenates and serum samples using HPLC methods optimized for the respective drugs. Y27632 was analyzed on a C18 reversed-phase SunFire™ column C18 using a mobile phase of water-methanol-trifluoroacetic acid (86:14:0.1, v/v/v; pH 2.0) at a flow rate of 1 ml/min. TKI was analyzed on the same column using a mobile phase consisted of water-acetonitrile-trifluoroacetic acid (91:09:0.1, v/v/v; pH 2.0) at a flow rate of 1 ml/min.

Series [9] can be described thus: Drug release studies (stability of drug-carrier linkage). It is filed as in vitro ADME. How it is done: The stability of the drug-carrier linkage was investigated by incubating cell targeting complexes at 37° C. under several conditions, e.g. buffers, buffers spiked with drug releasing substances or biological media.
Series [10] is described as follows: Platinum-related toxicity of SB202190-cisULS-LZM in normal rats. It is filed as in vivo, Male Wistar rats. An excerpt: In addition to drug related effects, we investigated whether administration of cell targeting complexes to healthy rats induced potential platinum related toxicity. Since the kidney is one of the major sites of platinum toxicity of cytostatic compounds, we performed these studies with SB202190-cisULS-LZM which accumulates in the kidney. We investigated morphology and induction of apoptosis (TUNEL staining), as well as basic renal parameters.
In order to detect potential platinum-related toxicity of kidney directed cell targeting complexes, we evaluated SB202190-cisULS-LZM in healthy rats.
To examine the effect on renal function, serum and urine creatinine levels were determined and creatinine clearances were calculated. […] To calculate proteinuria for the SB202190-cisULS-LZM group, the mean of the urinary protein levels at different days was taken. TUNEL stainings were performed on frozen kidney sections to examine the number of apoptotic cells. In addition, we determined the platinum levels in kidneys using […] after digestion of the tissue in concentrated nitric acid for 24 h at room temperature and heating at 70° C. until the formation of clear solution.

The subject of series [11] is I/R rats. The experiment in a line: Unilateral ischemia/reperfusion injury (I/R) model. It is filed as in vivo.
The test system of series [12] is endothelial cells (HUVEC). The series can be described thus: Binding of 89Zr-radiolabeled RGD-equipped complex to endothelial cells. Details: species or system human. As to conditions: 4° C. for 4 h.
Description: The interaction of cell targeting complexes with target cells was investigated in cultured target cells. Typically, in vitro targeting studies were performed by incubating target cells with the complexes, at either 4° C. or 37° C. Binding and/or internalization of the complexes by target cells was detected by either immunohistochemical staining for the complex (e.g. anti-HSA or anti-LZM staining) or by quantification of a radioactive reporter group that had been introduced in the complex (e.g. ^125I).
Binding of RGD-equipped complexes to endothelial cells was studied using ^89Zr-radiolabeled compounds.
Where [13] appears, read: normal rats, mean ± SEM, SB-ULS-LZM at 24, 32, 48 and 72 h, cisplatin 3 mg/kg i.v. at 24 h.
[14] abbreviates: four i.v. doses, 20 mg/kg conjugate or 555 μg/kg Y27632.

A word on the IC50: it is the concentration needed to halve the response being measured.

Take `CC(=O)CCCCn1c(=O)c2c(ncn2C)n(C)c1=O` [PTX, 3,7-dimethyl-1-(5-oxohexyl)purine-2,6-dione]: in series [1], the aSMA staining intensity entry was “reduced the intensity of both collagen type I production and aSMA”; the “collagen type I staining” value was “reduced the intensity of both collagen type I production and aSMA”.

Consider `Oc1ccc(-c2nc(-c3ccncc3)c(-c3ccc(F)cc3)[nH]2)cc1` [SB202190, 4-(-Fluorophenyl)-2-(4-hydroxy-phenyl)-5-(4-pyridyl)-1H-imidazole], for which, in [2], the “IL8 gene expression level after inhibition” value was determined as 40%. For the same molecule, in [3], the “fraction distributed to the kidney” value is 0.2%.

Turning to `c1ccc(-c2n[nH]cc2-c2ccnc3ccccc23)nc1` [TKI, 3-(Pyridin-2-yl)-4-(4-quinonyl)-1H-pyrazole], the “MCP-1 gene expression in kidney” value in series [4] (single dose 25 mg/kg conjugate or 630 μg/kg TKI) is on record as “did not lower the expressions of MCP-1”. Also, in [4] (single dose), the “expression of the fibrosis marker α-SMA” value was “significantly decreased” and the “infiltrated macrophages (ED-1 immunostaining)” value was “a reduction of ED-1 immunostaining”.

As to `CCCCc1nc(Cl)c(CO)n1Cc1ccc(-c2ccccc2-c2nn[nH]n2)cc1` [losartan], in series [5], the “hepatic fibrosis, Sirius Red staining” value was “Severe bridging” and the “αSMA-positive cells in liver” value was “marked accumulation of αSMA-positive cells”. In series [6] (BDL rats, 10 min after last dose), the “liver losartan as % of the cumulative dose” value came to 4%. Moreover, the concentration at 10 min in [6] (rat, liver, oral, 5 mg/kg/day) was 12100 ng/g.

Consider “RGDPEG-avidin: avidin with RGD-peptide via vinylsulfone-PEG-NHS, average 5.4 RGD groups per avidin”, for which the IC50 in [7] turned out to be 134 nM.

As for SB202190-cisULS-LZM, the “free drug in serum / serum stability” value in [8] (16 mg/kg i.v. single dose, 1-72 h) was “free drug was absent at all time points; also recorded: remained stable in the serum”. For the same molecule, the “accumulation in the kidneys” value in series [8] (16 mg/kg i.v., within 1 h) is 20 % of the injected dose. Besides, the “accumulation in proximal tubular cells (anti-LZM staining)” value in [8] (kidney sections) is listed as “accumulation of the conjugate in proximal tubular cells was confirmed”. For the same molecule, the “renal levels of free and bound drug over time” value in series [8] (single dose 16 mg/kg i.v.) is “continuous levels of both free drug and bound drug during a three-day period”. Moreover, the “Stability / release of SB202190” value in series [9] (37° C. in PBS pH 7.4 or rat serum) was “high stability in buffer or serum”. For the same molecule, the “Release of SB202190” value in [9] (37° C., kidney homogenate in PBS 1/3 (w/v)) is listed as “continuously released free drug”. Besides, the “tubular cell apoptosis by TUNEL staining” value in series [10] (as compared to untreated rats) was “no increase in the number of apoptotic cells”. Also, the “urinary protein levels” value in series [10] (in comparison to untreated rats) is reported as “an increase in urinary protein levels”. In series [10] (normal rats, kidney sections, mean ± SEM, cisplatin at 24 h), this molecule returned a TUNEL positive cells of 42.7 ± 18 numbers per field. In series [10] (normal rats, ICP-AAS, mean ± SEM), this molecule had a Renal platinum concentration of 37.0 ± 1.2 nmol/g. Further, in series [10] (normal rats, mean ± SEM), the “Change in body weight” value is “+0.3 ± 1.2 %”. In [10] (setting [13]), this molecule registered a Creatinine clearance of 0.8 ± 0.03 mL/min and a urinary protein levels of 29.6 ± 2.0 mg/day.

With “Y27632-cisULS-LZM: Y27632-cisULS reacted with met-LZM, 1-2 Y27632 per LZM”, in [11] (setting [14]), the “infiltration of macrophages, ED-1 staining morphometric score” value is “significantly reduced the morphometric score of the stained areas” and the “α-SMA staining morphometric score” value was “significantly reduced the morphometric score of the stained areas”.

On to “c(RGDf(ε-S-acetylthioacetyl)K) [RGD-peptide]”, for which the “displacement of binding of RGDPEG-SB202190-cisULS-HSA” value in series [12] was “could be displaced”.

For the molecule losartan-cisULS-LZM, the “number of infiltrated macrophages (ED-1)” value in series [11] (four doses 20 mg/kg/day) is recorded as “reduced the number of infiltrated macrophages”.
